{
  "source": "patent US7968323B2",
  "about": "“Bacterial ghost (BG) production process using betapropiolactone (BPL) for final inactivation” (priority 2008, dated 2011)",
  "key": {"[1]": {"test_system": "E. coli NM522 pGlysivb", "experiment": "Temperature study of BPL inactivation rates", "type": "cell-based", "settings": "0.05% BPL; for reduction of CFU: within 30 min; for time to BPL inactivation: starting CFU approximately 110^3/ml", "text": "The sterilizing activity of BPL and its self destruction in water is temperature dependant."}, "[2]": {"settings": "cited from earlier work"}, "[3]": {"test_system": "E. coli NM522 (pBBR1MCS5)", "experiment": "BPL treatment of E. coli NM522 (pBBR1MCS5, no E-lysis), small scale, CFU", "type": "cell-based", "settings": "0.05% BPL, 42° C., 30 min", "protocol": "(§1) 2. Comparison of E. coli NM522 (pBBR1MCS5, no E-lysis) and E. coli BG NM522 (pGlysivb, E-lysis Plasmid) Treated vs. Nontreated with BPL at a Final Concentration of 0.05% BPL at 42° C.\n(§2) Data from E. coli NM522 (pBBR1MCS5) that have been treated with 0.05% BPL at 42° C. (FIG. 4A) are showing that a reduction in viability of ˜5 log is obtained in small scale experiments whereas E. coli BG NM522 (pGlysivb) treated with 0.05% BPL at 42° C. […] Using a concentration of 0.05% BPL under a temperature of 42° C. and 30 min for the reaction is sufficient for E-lysed bacteria to be safely inactivated; no living cell counts are detected."}, "[4]": {"test_system": "Shigella flexneri 2a (backbone plasmid pBBR1MCS5)", "experiment": "Control fermentations inactivated with BPL, CFU", "type": "cell-based", "settings": "0.05% BPL, 30 min, two control fermentations", "text": "(§3) During the production process samples of the culture broth are taken at fixed timepoints (labeled A-M in FIG. 3) to determine optical density, colony forming units (CFU), BG appearance by microscopy as well as for real time PCR analysis of DNA contents. Fermentation parameters like pH, air flow, pO2, stirring and temperature are automatically documented by the fermentation program. Throughout the consistency study all parameters were kept in a narrow window.\nTo determine the inactivation effect of BPL to Shigella flexneri 2a bacteria under the same fermentation conditions as for production of BG two control fermentations using Shigella flexneri 2a transformed with the backbone plasmid pBBR1MCS5 (no lysis, no nuclease) were performed. BPL killing rates as well as DNA concentration of bacterial samples was measured at time points and under fermentation conditions described for BG production (Example 1, FIG. 3)."}, "[5]": {"test_system": "E. coli NM522 (backbone plasmid pBBR1MCS5)", "experiment": "BPL treatment in 20 l fermenter, control without lysis, CFU", "type": "cell-based", "settings": "0.05% BPL, 42° C., 30 min", "text": "as §3\n(§4) BPL killing rates as well as DNA concentration of bacterial samples were measured at time points and under fermentation conditions as described for BG production (Example 1, FIG. 3)."}, "[6]": {"test_system": "E. coli NM522 (pGlysivb, pSNUCIQ3)", "experiment": "BPL inactivation of E-SNUC BG in 20 l fermenter", "type": "cell-based", "settings": "42° C., 30 min", "protocol": "(§5) Gram negative bacteria (e.g E. coli or Shigella flexneri 2a in this study) are transformed with plasmid pGlysivb (encoding lysis gene E, construction as described in FIG. 2) or pGLNIc (encoding both the lysis gene E and the Staphylococcus aureus nuclease gene SNUC; WO 03/006630). Plasmids, pGlysivb and pGLNIc tightly regulate expression of lysis gene E by a temperature upshift from 35° C. to 42-44° C. under the mutated thermosensitive Lambda-promotor (λPRmut) and the expression of SNUC depends on induction from an upstream lac-promotor by addition of IPTG. As a consequence of protein E expression an E-specific tunnel structure between the inner and outer membrane of the bacteria is formed resulting in the expulsion of the cytoplasmic contents, including chromosomal and plasmid DNA, into the culture media under conditions described, at least 99.9% of all bacteria are converted into BG during the E-lysis process. To guarantee nucleic acid free BG a second system is activated in case of pGLNIc making use of the DNA and RNA degrading capabilities of SNUC. The nuclease is expressed −30 min before induction of gene E expression during the exponential growth phase of the bacteria and is activated after completion of E-lysis by addition of magnesiumchloride and calciumchloride. […]"}, "[7]": {"test_system": "E. coli NM522 BG (pGlysivb)", "experiment": "BPL treatment in 20 l fermenter, E-lysed BG, CFU", "type": "cell-based", "settings": "0.05% BPL, 42° C., 30 min", "protocol": "as §5, with “SNUC.” for “SNUC. The nuclease is expressed −30 min before induction of gene E expression during the exponential growth phase of the bacteria and is activated after completion of E-lysis by addition of magnesiumchloride and calciumchloride.”\nas §4"}, "[8]": {"test_system": "E. coli BG NM522 (pGlysivb)", "experiment": "BPL treatment of E. coli BG NM522 (pGlysivb, E-lysis plasmid), small scale, CFU", "type": "cell-based", "settings": "0.05% BPL, 42° C., 30 min", "protocol": "as §1, §2"}},
  "data": [
    {"smiles": "O=C1CCO1", "note": "[BPL, betapropiolactone]", "values": [
      {"measurement": "reduction of CFU", "setting": "[1]; 16° C.", "result": "less than 0.5 log"},
      {"measurement": "reduction of CFU", "setting": "[1]; 28° C.", "result": "approximately 1.5 log"},
      {"measurement": "time to BPL inactivation", "setting": "[1]; 36° C.", "result": 30, "unit": "min"},
      {"measurement": "time to BPL inactivation", "setting": "[1]; 42° C.", "result": 15, "unit": "min"},
      {"measurement": "solubility in water", "setting": "[2]", "result": "highly soluble in water"},
      {"measurement": "reduction in viability", "setting": "[3]", "result": "~5", "unit": "log"},
      {"measurement": "drop in living cell counts (CFU)", "setting": "[4]", "result": 4, "unit": "log"},
      {"measurement": "reduction in viability", "setting": "[5]", "result": "~3", "unit": "log"},
      {"measurement": "concentration used for total inactivation by BPL", "setting": "[6]", "result": "less than 0.025%"},
      {"measurement": "inactivation, live CFU at end of BG production process", "setting": "[7]", "result": "total inactivation"},
      {"measurement": "surviving bacteria after BPL treatment", "setting": "[8]", "result": "no surviving bacteria"}
    ]}
  ]
}
